From ChEMBL document CHEMBL5465560, “Selectivity Literature for EUbOPEN Chemogenomic Library” (2024) come the findings set out here.

Experiment [1] has as its target T1, Mitogen-activated protein kinase kinase kinase kinase 3 (Homo sapiens) (UniProt Q8IVH8).
T1 sequence (whole entry): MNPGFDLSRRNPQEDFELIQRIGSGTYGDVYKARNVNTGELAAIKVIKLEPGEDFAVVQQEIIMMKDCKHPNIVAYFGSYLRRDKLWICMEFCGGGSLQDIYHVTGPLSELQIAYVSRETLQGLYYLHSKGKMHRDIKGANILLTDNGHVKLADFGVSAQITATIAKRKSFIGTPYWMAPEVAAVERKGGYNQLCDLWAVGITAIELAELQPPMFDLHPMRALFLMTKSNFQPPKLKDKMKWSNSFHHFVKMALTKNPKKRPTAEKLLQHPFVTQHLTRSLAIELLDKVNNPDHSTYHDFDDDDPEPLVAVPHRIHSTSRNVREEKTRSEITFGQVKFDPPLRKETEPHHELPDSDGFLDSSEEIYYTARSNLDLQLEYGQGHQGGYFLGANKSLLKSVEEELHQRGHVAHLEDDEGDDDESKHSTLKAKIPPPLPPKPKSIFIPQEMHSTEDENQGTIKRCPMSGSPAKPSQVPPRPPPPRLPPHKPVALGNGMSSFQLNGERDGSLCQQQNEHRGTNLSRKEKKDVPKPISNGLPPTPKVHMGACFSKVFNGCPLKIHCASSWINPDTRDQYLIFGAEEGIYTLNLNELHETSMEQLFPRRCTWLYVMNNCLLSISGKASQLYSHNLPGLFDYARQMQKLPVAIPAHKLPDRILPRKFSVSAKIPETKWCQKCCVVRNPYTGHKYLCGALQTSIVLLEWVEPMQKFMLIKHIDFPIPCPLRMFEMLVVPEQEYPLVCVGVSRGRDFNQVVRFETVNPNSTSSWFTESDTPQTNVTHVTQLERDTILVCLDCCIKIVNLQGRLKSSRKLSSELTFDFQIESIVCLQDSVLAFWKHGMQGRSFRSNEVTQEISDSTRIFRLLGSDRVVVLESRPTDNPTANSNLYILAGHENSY
As to the kind of experiment: Selectivity interaction (KinomeScan (DiscoverX)) EUB0001079a MAP4K3. The note with it: at 1 µM.

Experiment [2] deals with Vascular endothelial growth factor receptor 1 (Homo sapiens) (UniProt P17948). As to the kind of experiment: Selectivity interaction (KinomeScan (DiscoverX)) EUB0000655a FLT1. To be noted: at 10 µM.
The target in experiment [3] is T2, Serine/threonine-protein kinase Sgk1 (Homo sapiens) (UniProt O00141).
T2 sequence (whole entry): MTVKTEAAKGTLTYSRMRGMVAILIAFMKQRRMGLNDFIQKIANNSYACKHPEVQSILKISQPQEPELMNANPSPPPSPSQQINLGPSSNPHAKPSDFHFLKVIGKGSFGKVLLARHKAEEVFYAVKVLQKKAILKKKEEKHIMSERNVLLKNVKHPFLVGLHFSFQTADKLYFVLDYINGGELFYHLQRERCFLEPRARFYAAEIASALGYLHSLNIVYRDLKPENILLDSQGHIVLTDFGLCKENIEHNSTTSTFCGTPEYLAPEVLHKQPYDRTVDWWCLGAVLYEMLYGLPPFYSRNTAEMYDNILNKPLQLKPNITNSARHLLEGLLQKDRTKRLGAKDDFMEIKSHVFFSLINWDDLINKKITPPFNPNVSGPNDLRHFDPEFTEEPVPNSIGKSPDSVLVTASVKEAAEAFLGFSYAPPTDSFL
Put plainly: Selectivity interaction (KinomeScan (DiscoverX)) EUB0000695a SGK1. To be noted: at 100 nM.

For experiment [4], the target named is T3, Serine/threonine-protein kinase Sgk3 (Homo sapiens) (UniProt Q96BR1).
T3 sequence (whole entry): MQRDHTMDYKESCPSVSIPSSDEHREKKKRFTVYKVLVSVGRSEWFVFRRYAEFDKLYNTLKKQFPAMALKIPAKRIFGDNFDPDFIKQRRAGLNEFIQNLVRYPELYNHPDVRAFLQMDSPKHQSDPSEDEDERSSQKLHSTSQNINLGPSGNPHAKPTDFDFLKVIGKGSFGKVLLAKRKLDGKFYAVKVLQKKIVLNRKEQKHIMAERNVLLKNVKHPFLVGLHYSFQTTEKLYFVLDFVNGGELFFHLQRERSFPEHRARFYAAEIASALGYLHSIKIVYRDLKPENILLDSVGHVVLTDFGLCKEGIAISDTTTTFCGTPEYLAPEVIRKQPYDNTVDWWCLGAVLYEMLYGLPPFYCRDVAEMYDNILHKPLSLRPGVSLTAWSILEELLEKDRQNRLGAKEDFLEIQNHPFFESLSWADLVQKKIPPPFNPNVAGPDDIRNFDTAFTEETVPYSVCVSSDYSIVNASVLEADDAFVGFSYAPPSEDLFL
Put plainly: Selectivity interaction (SelectScreen profiling (Invitrogen)) EUB0000607a SGK3. To be noted: at 2 µM.

Experiment [5] concerns the target T4, Beta-adrenergic receptor kinase 1 (Homo sapiens) (UniProt P25098).
T4 sequence (whole entry): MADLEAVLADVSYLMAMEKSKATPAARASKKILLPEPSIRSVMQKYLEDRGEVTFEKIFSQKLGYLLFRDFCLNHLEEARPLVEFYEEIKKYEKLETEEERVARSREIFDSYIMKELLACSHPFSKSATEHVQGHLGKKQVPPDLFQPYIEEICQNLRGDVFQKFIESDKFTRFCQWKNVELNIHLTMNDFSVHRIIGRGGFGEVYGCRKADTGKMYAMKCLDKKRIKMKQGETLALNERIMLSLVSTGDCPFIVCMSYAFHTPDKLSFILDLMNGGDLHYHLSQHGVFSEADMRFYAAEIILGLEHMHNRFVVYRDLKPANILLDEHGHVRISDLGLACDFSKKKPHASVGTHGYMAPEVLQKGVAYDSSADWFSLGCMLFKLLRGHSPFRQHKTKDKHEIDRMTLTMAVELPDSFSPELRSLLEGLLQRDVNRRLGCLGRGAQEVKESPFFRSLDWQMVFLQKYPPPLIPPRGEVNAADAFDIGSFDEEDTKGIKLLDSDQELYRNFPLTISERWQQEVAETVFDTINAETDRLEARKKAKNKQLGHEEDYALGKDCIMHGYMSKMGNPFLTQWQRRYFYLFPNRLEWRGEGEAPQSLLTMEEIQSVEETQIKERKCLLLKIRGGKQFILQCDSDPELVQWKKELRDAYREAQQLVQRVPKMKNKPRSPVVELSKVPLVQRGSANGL
Put plainly: Selectivity interaction (ActivX KiNativ screen (kinase selectivity in THP-1 cell lysates)) EUB0000639a ADRBK1. In kind it is subcellular. To be noted: lysate.

In experiment [6] the target is Ribosomal protein S6 kinase alpha-5 (Homo sapiens) (UniProt O75582). As to the kind of experiment: Selectivity interaction (KinomeScan (DiscoverX)) EUB0000311b RPS6KA5. The note with it: at 1 µM.
Ribosomal protein S6 kinase alpha-5 (Homo sapiens), sequence (O75582 whole entry, looked up): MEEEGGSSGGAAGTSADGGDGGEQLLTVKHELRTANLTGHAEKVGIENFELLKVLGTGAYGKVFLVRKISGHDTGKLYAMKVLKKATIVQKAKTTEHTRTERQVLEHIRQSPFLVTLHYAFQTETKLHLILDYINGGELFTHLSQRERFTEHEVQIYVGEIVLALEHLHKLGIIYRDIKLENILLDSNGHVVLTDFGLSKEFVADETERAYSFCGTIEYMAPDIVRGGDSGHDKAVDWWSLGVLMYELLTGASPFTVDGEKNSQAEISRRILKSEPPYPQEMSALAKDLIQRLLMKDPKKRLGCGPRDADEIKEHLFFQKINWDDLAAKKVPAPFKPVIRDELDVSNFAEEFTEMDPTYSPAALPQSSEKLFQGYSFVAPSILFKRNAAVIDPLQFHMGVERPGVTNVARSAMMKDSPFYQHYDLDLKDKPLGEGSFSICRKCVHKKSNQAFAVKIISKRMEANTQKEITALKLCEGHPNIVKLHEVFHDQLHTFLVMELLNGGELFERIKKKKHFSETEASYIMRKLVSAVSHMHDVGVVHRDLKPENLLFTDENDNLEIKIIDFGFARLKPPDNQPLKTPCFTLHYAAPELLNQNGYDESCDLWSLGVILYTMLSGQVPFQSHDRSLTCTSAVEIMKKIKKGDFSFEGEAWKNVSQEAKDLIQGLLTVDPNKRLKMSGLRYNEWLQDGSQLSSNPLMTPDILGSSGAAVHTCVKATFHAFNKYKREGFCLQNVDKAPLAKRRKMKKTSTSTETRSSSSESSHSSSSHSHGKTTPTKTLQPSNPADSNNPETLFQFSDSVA

Vascular endothelial growth factor receptor 1 (Homo sapiens), sequence (P17948 whole entry): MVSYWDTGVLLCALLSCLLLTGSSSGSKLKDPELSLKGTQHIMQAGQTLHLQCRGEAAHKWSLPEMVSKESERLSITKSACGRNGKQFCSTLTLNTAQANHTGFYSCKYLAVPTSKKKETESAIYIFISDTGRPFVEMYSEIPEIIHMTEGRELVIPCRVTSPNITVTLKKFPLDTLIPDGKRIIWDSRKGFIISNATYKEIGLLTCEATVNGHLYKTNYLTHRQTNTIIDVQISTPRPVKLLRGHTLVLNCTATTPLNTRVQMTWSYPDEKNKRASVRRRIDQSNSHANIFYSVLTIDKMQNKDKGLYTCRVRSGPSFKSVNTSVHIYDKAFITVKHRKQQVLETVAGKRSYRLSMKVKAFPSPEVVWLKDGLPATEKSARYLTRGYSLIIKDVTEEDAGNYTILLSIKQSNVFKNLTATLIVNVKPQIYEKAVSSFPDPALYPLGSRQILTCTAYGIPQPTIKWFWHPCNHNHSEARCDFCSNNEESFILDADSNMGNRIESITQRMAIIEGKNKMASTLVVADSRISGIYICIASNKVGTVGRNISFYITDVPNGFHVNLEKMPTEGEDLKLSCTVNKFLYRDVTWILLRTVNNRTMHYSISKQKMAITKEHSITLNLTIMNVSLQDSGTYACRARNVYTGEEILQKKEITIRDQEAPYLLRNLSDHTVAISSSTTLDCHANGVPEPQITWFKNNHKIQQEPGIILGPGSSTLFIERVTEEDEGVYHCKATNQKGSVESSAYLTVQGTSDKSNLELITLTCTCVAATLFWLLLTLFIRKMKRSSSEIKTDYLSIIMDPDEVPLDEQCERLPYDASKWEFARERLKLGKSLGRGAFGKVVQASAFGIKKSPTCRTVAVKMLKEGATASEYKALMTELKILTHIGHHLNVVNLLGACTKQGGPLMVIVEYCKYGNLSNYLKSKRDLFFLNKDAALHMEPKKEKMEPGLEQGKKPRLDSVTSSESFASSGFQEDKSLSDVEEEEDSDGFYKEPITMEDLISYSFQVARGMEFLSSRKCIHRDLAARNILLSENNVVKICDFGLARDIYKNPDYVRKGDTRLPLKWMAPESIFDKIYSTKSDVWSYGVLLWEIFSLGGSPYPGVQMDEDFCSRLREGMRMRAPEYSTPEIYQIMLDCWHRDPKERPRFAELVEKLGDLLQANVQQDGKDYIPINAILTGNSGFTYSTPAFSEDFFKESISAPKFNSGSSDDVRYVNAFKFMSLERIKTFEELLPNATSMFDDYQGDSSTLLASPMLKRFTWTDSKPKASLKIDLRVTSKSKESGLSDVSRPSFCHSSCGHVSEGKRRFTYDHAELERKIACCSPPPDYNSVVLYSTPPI

Consider `Nc1cnc(N2CCc3cc(S(=O)(=O)Nc4c(F)cc(Cl)cc4F)cc(N4CCCC4=O)c32)nc1` [TP-020n], for which, in experiment [1], the % of control worked out at 93%.
Turning to `CN(C)CCOc1ccc(-c2nc(-c3ccncc3)c(-c3ccc4c(c3)CC/C4=N\O)[nH]2)cc1`, the % of control in experiment [2] was 79%.
`Cc1cc(F)c(C(=O)Nc2cccc(-c3nncn3C(C)C)n2)cc1-n1cnc(C2CC2)c1` returned a % of control in experiment [3] of 90%.
In turn, `CNC(=O)Nc1ccc(-c2nc(N3CC4CCC(C3)O4)c3cnn(C4CCC5(CC4)OCCO5)c3n2)cc1` yielded a % of inhibition in experiment [4] of 3%.
In the case of `CC[C@@H]1[C@H](F)C(=O)N[C@@H]1COc1nccc2cc(C(N)=O)c(OC)cc12` [ZIMLOVISERTIB], the % of inhibition is 5.6% in experiment [5] (at 0.01 µM); 8% in experiment [5] (at 0.04 µM); 9.7% in experiment [5] (at 0.2 µM); 14.3% in experiment [5] (at 1 µM); 12.1% in experiment [5] (at 5 µM).
With `CCc1ccccc1C(=O)Nc1n[nH]c2c(C)c(F)c(C3C(C#N)=C(C)N(C)C(C)=C3C#N)cc12` [BAY-3827], the % of control in experiment [6] came out at 1%.
